In general, Ki refers to the dissociation constant of the complex between target and ligand, obtained from inhibition or displacement.

Results on 8 molecules are retold here after patent publication US20240150293A1, “SPIROCYCLOHEXANE DERIVATIVES, PHARMACEUTICAL COMPOSITIONS CONTAINING THEM AND THEIR USES AS ANTI-APOPTOTIC INHIBITORS” (LES LABORATOIRES SERVIER, priority 2021, published 2024).

Test [1] addresses Cy5-labelled Mcl1 (amino acids 171-321) C286S protein (UniProtKB Q07820) (Homo sapiens (Human), UniProt Q07820, C286S). The experiment in a line: Inhibition of Mcl-1 by the fluorescence quenching assay (Example A, Method B). Type of test: binding. The method, boiled down:
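Eleven-point compound series incubated 2 h at room temperature with 1 nM Cy5-tagged protein and quencher-labelled PUMA peptide at 10, 20 or 400 nM in HEPES/NaCl/Tween 20, pH 7.4, 5% DMSO. IC50 for 50% fluorescence increase by 4-parameter fit, then Ki derived (complete cKi or estimated eKi).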

In test [2] the test system is H929 multiple myeloma tumor line. The experiment in a line: In vitro cytotoxicity, MTT assay (Example B, Method A). The following applies: Homo sapiens, NCI-H929, 48 h, H929 cells, 48 hours exposure, read-out: C50. The format is cell-based. On the procedure: The cytotoxicity studies were carried out on the H929 multiple myeloma tumor line.
The cells are distributed onto microplates and exposed to the test compounds for 48 hours. The cell viability is then quantified by a colorimetric assay, the Microculture Tetrazolium Assay (Carmichael et al, Cancer Res. 1987, 47, 939-942).
The results are expressed in C50 which means concentration corresponding to […] of effect/inhibition.
In general terms: Tetrazolium assays rely on reduction of a dye to a coloured formazan, in cell work by metabolically active cells.

Each structure is given as a SMILES string.

Sequence of Cy5-labelled Mcl1 (amino acids 171-321) C286S protein (Q07820 171-321 C286S): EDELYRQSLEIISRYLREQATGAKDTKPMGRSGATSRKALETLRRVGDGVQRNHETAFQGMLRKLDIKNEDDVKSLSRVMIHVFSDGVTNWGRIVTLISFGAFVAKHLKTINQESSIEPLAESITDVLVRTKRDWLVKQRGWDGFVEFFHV

With `C[C@@H](COc1ccnc2c1C(OC(F)F)CCC2)C[C@H]1Cc2ccccc2[C@]12CC[C@@](Nc1cccc(Cl)c1)(C(=O)O)CC2` (stereo partly drawn) [Example 691, (1r,2′S,4S)-4-(3-chloroanilino)-2′-[(2R)-3-{[5-(difluoromethoxy)-5,6,7,8-tetrahydroquinolin-4-yl]oxy}-2-methylpropyl]-2′,3′-dihydrospiro[cyclohexane-1,1′-indene]-4-carboxylic acid], the Ki in test [1] was determined as 10.9 nM. Also, the IC50 in test [2] was 806 nM.
Take `C[C@@H](COc1ccnc2c1[C@H](C)CCC2(F)F)C[C@H]1Cc2ccccc2[C@]12CC[C@@](Nc1cccc(Cl)c1)(C(=O)O)CC2` [Example 692, (1r,2′S,4S)-4-(3-chloroanilino)-2′-[(2R)-3-{[(5R)-8,8-difluoro-5-methyl-5,6,7,8-tetrahydroquinolin-4-yl]oxy}-2-methylpropyl]-2′,3′-dihydrospiro[cyclohexane-1,1′-indene]-4-carboxylic acid]: the Ki in test [1] is 1.75 nM. In addition, the IC50 in test [2] came out at 132 nM.
The corresponding values for `C[C@@H](COc1ccnc2c1C(F)(F)CCC2)C[C@H]1Cc2ccccc2[C@]12CC[C@@](Nc1cccc(Cl)c1)(C(=O)O)CC2` [Example 693, (1r,2′S,4S)-4-(3-chloroanilino)-2′-{(2R)-3-[(5,5-difluoro-5,6,7,8-tetrahydroquinolin-4-yl)oxy]-2-methylpropyl}-2′,3′-dihydrospiro[cyclohexane-1,1′-indene]-4-carboxylic acid] are 3.7 nM and 527 nM.
The corresponding values for `C[C@@H](COc1ccnc2c1[C@@H](CC(F)(F)F)CCC2)C[C@H]1Cc2ccccc2[C@]12CC[C@@](Nc1cccc(Cl)c1)(C(=O)O)CC2` [Example 694, (1r,2′S,4S)-4-(3-chloroanilino)-2′-[(2R)-2-methyl-3-{[(5R)-5-(2,2,2-trifluoroethyl)-5,6,7,8-tetrahydroquinolin-4-yl]oxy}propyl]-2′,3′-dihydrospiro[cyclohexane-1,1′-indene]-4-carboxylic acid] are 100 nM and 6290 nM.
The corresponding values for `C[C@@H](COc1ccnc2c1[C@H](CC(F)(F)F)CCC2)C[C@H]1Cc2ccccc2[C@]12CC[C@@](Nc1cccc(Cl)c1)(C(=O)O)CC2` [Example 695, (1r,2′S,4S)-4-(3-chloroanilino)-2′-[(2R)-2-methyl-3-{[(5S)-5-(2,2,2-trifluoroethyl)-5,6,7,8-tetrahydroquinolin-4-yl]oxy}propyl]-2′,3′-dihydrospiro[cyclohexane-1,1′-indene]-4-carboxylic acid] are 29.6 nM and 3240 nM.
For the molecule `CC[C@H]1CC[C@H](F)c2nccc(OC[C@H](C)C[C@H]3Cc4ccccc4[C@]34CC[C@@](Nc3cccc(Cl)c3)(C(=O)O)CC4)c21` [Example 696, (1r,2′S,4S)-4-(3-chloroanilino)-2′-[(2R)-3-{[(5S,8S)-5-ethyl-8-fluoro-5,6,7,8-tetrahydroquinolin-4-yl]oxy}-2-methylpropyl]-2′,3′-dihydrospiro[cyclohexane-1,1′-indene]-4-carboxylic acid], the Ki in test [1] is 103 nM. For the same molecule, the IC50 in test [2] was found to be 5070 nM.
The like results for `CC[C@@H]1CC[C@@H](F)c2nccc(OC[C@H](C)C[C@H]3Cc4ccccc4[C@]34CC[C@@](Nc3cccc(Cl)c3)(C(=O)O)CC4)c21` [Example 697, (1r,2′S,4S)-4-(3-chloroanilino)-2′-[(2R)-3-{[(5R,8R)-5-ethyl-8-fluoro-5,6,7,8-tetrahydroquinolin-4-yl]oxy}-2-methylpropyl]-2′,3′-dihydrospiro[cyclohexane-1,1′-indene]-4-carboxylic acid] were, in that order, 8.28 nM and 374 nM.
The like results for `C[C@@H](COc1ccnc2c1[C@@H](C(F)(F)F)CCC2)C[C@H]1Cc2ccccc2[C@]12CC[C@@](Nc1cccc(Cl)c1)(C(=O)O)CC2` [Example 698, (1r,2′S,4S)-4-(3-chloroanilino)-2′-[(2R)-2-methyl-3-{[(5S)-5-(trifluoromethyl)-5,6,7,8-tetrahydroquinolin-4-yl]oxy}propyl]-2′,3′-dihydrospiro[cyclohexane-1,1′-indene]-4-carboxylic acid] were, in that order, 65.6 nM and 5430 nM.
